Measurements taken from patent US8048883B2, “Polymorphic form of imatinib mesylate and a process for its preparation” (Natco Pharma Limited, priority 2004, dated 2011).
“Also recorded” adds a separate entry of the source. Where two headings read alike, the source gives them in different places.

Tests used:
Type in all cases: physicochemical
[1] = Flow properties / suitability for solid dosage forms
[2] = Stability of the polymorphic form (metastable or stable); settings: room temperature and higher temperatures up to 120° C.
[3] = Hygroscopicity
[4] = Comparative dissolution of Imatinib mesylate capsules 100 mg (α2 and β-forms)
[5] = Heat stability of α2-crystal form, examined by XRPD; settings: for Polymorph form detected after heating: XRPD
Description: Pure α2-crystal polymorph 1 gm prepared by the process described in Example 1 was taken in a boiling test tube and heated gradually in oil bath the substance was examined by XRPD. The results are tabulated below

[6] = Stability of α2 form under accelerated stress conditions in bulk and formulated capsule, XRPD
[7] = 0 Month at 40 ± 2° C./75 ± 5% RH
[8] = 1 Month at 40 ± 2° C./75 ± 5% RH
[9] = 2 Months at 40 ± 2° C./75 ± 5% RH
[10] = 3 Months at 40 ± 2° C./75 ± 5% RH
[11] = 6 Months at 40 ± 2° C./75 ± 5% RH

Cc1ccc(NC(=O)c2ccc(CN3CCN(C)CC3)cc2)cc1Nc1nccc(-c2cccnc2)n1 [α2 form, N-{5-[4-(4-methylpiperazino-methyl)-benzoylamido]-2-methylphenyl}-4-(3-pyridyl) 2-pyrimidine-amine]
Flow properties of the formulations, α2 form compared with β-form ([1]; same excipient composition): comparable | Flow properties ([1]; suitability for pharmaceutical solid dosage forms): Found to be well suited for | Stability ([2]; listed as α2): stable | Stability ([2]; listed as α2-form): stable | Hygroscopicity [3]: Non-hygroscopic | Dissolution of the capsule formulation compared with the β-form formulation [4]: better dissolution characteristics | Dissolution in capsule formulation ([4]; during 30 min): Dissolution of more than 95% | Dissolution of the capsule formulation compared with the β-form formulation ([4]; listed as α2-form): comparable and even better | Polymorph form detected after heating ([5]; 110° C., 2 hours): α2 form | Polymorph form detected after heating ([5]; 110° C., 4 hours): α2 form | Heat stability ([5]; 120° C. for 6 hours): non-metastable and stable; also recorded: fairly stable to heat | Polymorph form detected after heating ([5]; 120° C., 2 hours): α2 form | Polymorph form detected after heating ([5]; 120° C., 4 hours): α2 form | Polymorph form detected after heating ([5]; 120° C., 6 hours): α2 form | Polymorph content of bulk imatinib mesylate, polymorph form detected [6, 7]: α2 form | Polymorph content of imatinib mesylate in formulated capsule, polymorph form detected [6, 7]: α2 form | Polymorph content of bulk imatinib mesylate, polymorph form detected [6, 8]: α2 form | Polymorph content of imatinib mesylate in formulated capsule, polymorph form detected [6, 8]: α2 form | Polymorph content of bulk imatinib mesylate, polymorph form detected [6, 9]: α2 form | Polymorph content of imatinib mesylate in formulated capsule, polymorph form detected [6, 9]: α2 form | Polymorph content of bulk imatinib mesylate, polymorph form detected [6, 10]: α2 form | Polymorph content of imatinib mesylate in formulated capsule, polymorph form detected [6, 10]: α2 form | Polymorph content of bulk imatinib mesylate, polymorph form detected [6, 11]: α2 form | Polymorph content of imatinib mesylate in formulated capsule, polymorph form detected [6, 11]: α2 form | Conversion to β-polymorphic form in capsule ([6]; about 40° C. and about 75% relative humidity for 6 months): does not show any significant conversion | Conversion over time to form β ([6]; bulk form or dosage form, about 40° and about 75% relative humidity, at least about 6 months): does not substantially convert | Stability at normal and accelerated stress conditions ([6]; in bulk and formulated capsule form): stable
